Laboratory results taken from ChEMBL document CHEMBL1155494, “New stilbene dimers against amyloid fibril formation” (Bioorg Med Chem Lett, 2010).

Columns and labels:
[1] = Inhibition of amyloid beta 25-35 fibril formation at 10 uM by using UV-visible measurements and electron microscopy analysis
[2] = Inhibition of amyloid beta 25-35 fibril formation by using UV-visible measurements and electron microscopy analysis

| Compound | inhibition [1] [%] | EC50 [2] [µM] |
| --- | --- | --- |
| Oc1ccc(C2Oc3ccc(/C=C/c4cc(O)cc5c4[C@H](c4cc(O)cc(O)c4)[C@@H](c4ccc(O)cc4)O5)cc3[C@@H]2c2cc(O)cc3c2[C@H](c2cc(O)cc(O)c2)C(c2ccc(O)cc2)O3)cc1 (some centres not stated) | 32 | – |
| OC[C@H]1O[C@@H](Oc2cc(O)cc(/C=C/c3ccc(O)cc3)c2)[C@H](O)[C@@H](O)[C@@H]1O [PICEID] | 62 | 6 |
| OC[C@@H]1O[C@H](Oc2ccc(/C=C/c3cc(O)c4c(c3)O[C@H](c3ccc(O[C@H]5O[C@@H](CO)[C@H](O)[C@@H](O)[C@@H]5O)cc3)[C@H]4c3cc(O)cc(O)c3)cc2)[C@@H](O)[C@H](O)[C@H]1O [12,GNEMENOSIDE A] | 46 | 10 |
| Oc1ccc(/C=C/c2cc(O)cc3c2[C@H](c2cc(O)cc(O)c2)[C@@H](c2ccc(O)c(O)c2)O3)cc1 [SCIRPUSIN A] | 80 | 0.7 |
| Oc1ccc(/C=C/c2cc(O)cc3c2[C@H](c2cc(O)cc(O)c2)[C@@H](c2ccc(O)cc2)O3)cc1 | 27 | – |
| OC[C@H]1O[C@@H](Oc2cc(/C=C/c3ccc(O)cc3)c3c(c2)O[C@H](c2ccc(O)cc2)[C@H]3c2cc(O)cc(O)c2)[C@H](O)[C@@H](O)[C@@H]1O | 93 | 0.2 |
| Oc1cc(O)cc(-c2cc3ccc(O)cc3o2)c1 | 9 | – |
| Oc1cc(O)cc(/C=C/c2ccc(O)cc2O)c1 | 32 | – |
| Oc1ccc([C@H]2Oc3cc(O)c([C@@H]4[C@@H](c5cc6c(cc5O)O[C@H](c5ccc(O)cc5)[C@H]6c5cc(O)cc(O)c5)[C@H](c5ccc(O)cc5)O[C@@H]4c4ccc(O)cc4)cc3[C@@H]2c2cc(O)cc(O)c2)cc1 | 17 | – |

Further lines, results first:

| inhibition [1] [%] | EC50 [2] [µM] | Compound |
| --- | --- | --- |
| 45 | 10 | COc1cc(/C=C/C(=O)CC(=O)/C=C/c2ccc(O)c(OC)c2)ccc1O [CURCUMIN] |
| 35 | – | COc1cc(/C=C/c2ccc(O)cc2)cc(OC)c1 |
| 28 | – | COc1cc(/C=C/c2cc(O)cc(O)c2)ccc1O[C@@H]1O[C@H](CO)[C@@H](O)[C@H](O)[C@H]1O |
| 25 | – | Oc1cc(O)cc(/C=C/c2ccc(O)c(O)c2)c1 |
| 63 | 6 | Oc1ccc(/C=C/c2cc(O)cc(O)c2)cc1 [RESVERATROL] |
| 11 | – | OC[C@H]1O[C@@H](Oc2ccc(/C=C/c3cc(O)cc(O)c3)cc2)[C@H](O)[C@@H](O)[C@@H]1O |
| 40 | – | COc1cc(/C=C/c2cc(O)c3c(c2)O[C@H](c2ccc(O)c(OC)c2)[C@H]3c2cc(O)cc(O)c2)ccc1O |
